This passage reports EC50 results from patent US20250136606A1, “MODULATORS OF TRPML, THEIR COMPOSITIONS AND METHODS OF USE” (Caraway Therapeutics, Inc., priority 2021, published 2025).

Common to all, as to assay type: cell-based
Experiment [1] concerns the target TRPML1 (Homo sapiens, UniProt Q9GZU1). The experiment is described as follows: Fluorescent TRPML1 assay (Fluo4-AM calcium fluorescence in doxycycline-induced HEK-293 Trex cells). The gist of the method: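 First, expression of surface-targeted mutant human TRPML1 is induced in HEK-293 Trex cells with 0.5 ug/mL doxycycline the day before. Next, cells take up 1 micromolar Fluo4-AM in Ringer's with 0.1% Pluronic. Finally, they are added to compounds (6 nanomolar–20 micromolar final) in 10 mM calcium Ringer's and fluorescence is read.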

Experiment [2] addresses T1, TRPML2 (Homo sapiens, UniProt Q8IZK6).
T1 construct: expressed in transfected cells
T1 sequence (Q8IZK6 1-566): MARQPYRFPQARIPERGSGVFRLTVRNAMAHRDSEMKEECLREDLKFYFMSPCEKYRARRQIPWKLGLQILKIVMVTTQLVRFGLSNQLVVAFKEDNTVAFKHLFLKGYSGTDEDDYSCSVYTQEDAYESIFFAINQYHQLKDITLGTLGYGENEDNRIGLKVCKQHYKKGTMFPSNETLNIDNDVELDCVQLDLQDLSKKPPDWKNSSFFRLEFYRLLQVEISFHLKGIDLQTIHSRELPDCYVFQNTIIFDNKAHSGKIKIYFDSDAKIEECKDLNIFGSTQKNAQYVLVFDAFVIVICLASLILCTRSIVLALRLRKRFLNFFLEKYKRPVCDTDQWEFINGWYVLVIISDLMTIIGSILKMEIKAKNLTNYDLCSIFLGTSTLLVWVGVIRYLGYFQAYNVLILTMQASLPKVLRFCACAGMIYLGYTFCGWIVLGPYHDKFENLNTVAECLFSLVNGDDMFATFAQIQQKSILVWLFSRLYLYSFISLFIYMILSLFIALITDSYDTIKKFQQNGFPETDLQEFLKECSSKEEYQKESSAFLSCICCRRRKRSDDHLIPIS
Put plainly: Fluorescent TRPML2 assay (performed as for TRPML1, substituting the TRPML2 subtype). The gist of the method: (§1)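 HEK-293 Trex, dox-induced (0.5 ug/mL), mutated for surface expression. Fluo4-AM 1 micromolar load ~60 min, dark; buffer modified Ringer's, 10 mM Ca. Cpds 20 micromolar–6 nanomolar final, half-log, n=3. Read ex 480/em 540; % activity vs controls; EC50 nonlinear fit.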

The target in experiment [3] is T2, TRPML3 (Homo sapiens, UniProt Q8TDD5).
T2 construct: expressed in transfected cells
T2 sequence (Q8TDD5 1-553): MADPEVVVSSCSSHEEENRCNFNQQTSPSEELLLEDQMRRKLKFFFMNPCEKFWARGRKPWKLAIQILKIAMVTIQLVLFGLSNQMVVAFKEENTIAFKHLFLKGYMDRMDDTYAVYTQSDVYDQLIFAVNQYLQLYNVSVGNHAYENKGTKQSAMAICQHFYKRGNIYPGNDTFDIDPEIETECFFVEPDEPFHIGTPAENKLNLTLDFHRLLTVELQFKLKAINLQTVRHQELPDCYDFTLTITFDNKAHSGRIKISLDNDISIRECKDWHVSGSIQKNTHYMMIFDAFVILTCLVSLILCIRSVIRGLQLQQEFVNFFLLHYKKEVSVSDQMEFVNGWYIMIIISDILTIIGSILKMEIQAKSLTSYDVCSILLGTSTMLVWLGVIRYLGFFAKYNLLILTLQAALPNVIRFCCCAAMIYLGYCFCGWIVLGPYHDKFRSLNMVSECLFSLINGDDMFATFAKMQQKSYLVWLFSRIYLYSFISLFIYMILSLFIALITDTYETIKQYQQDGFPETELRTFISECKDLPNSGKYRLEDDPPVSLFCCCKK
Put plainly: Fluorescent TRPML3 assay (performed as for TRPML1, substituting the TRPML3 subtype). The gist of the method: as §1

Molecules are shown by their SMILES.

Sequence of TRPML1 (Q9GZU1 whole entry L15A/L16A/L577A/L578A, form open): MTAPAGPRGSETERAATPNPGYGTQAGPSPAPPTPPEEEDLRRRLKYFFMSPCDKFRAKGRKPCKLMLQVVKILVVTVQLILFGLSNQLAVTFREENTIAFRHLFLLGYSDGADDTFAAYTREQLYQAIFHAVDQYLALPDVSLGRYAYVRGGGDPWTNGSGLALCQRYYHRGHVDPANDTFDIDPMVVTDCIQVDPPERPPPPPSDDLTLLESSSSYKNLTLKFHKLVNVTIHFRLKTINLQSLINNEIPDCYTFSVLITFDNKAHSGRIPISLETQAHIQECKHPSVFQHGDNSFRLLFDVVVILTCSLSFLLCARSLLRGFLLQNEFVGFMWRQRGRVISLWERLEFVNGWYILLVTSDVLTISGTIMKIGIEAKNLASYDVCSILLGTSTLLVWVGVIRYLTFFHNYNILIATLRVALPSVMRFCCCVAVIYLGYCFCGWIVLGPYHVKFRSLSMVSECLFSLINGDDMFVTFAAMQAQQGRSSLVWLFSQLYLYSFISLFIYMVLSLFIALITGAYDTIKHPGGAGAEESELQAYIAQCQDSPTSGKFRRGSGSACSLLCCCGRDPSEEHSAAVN

Consider `C[C@@H]1CN(c2ncnc3c2c(C(F)F)cn3-c2cccc(F)c2)[C@@H](C)CN1C(=O)OC(C)(C)C` [Compound 695, tert-butyl (2R,5S)-4-(5-(difluoromethyl)-7-(3-fluorophenyl)-7H-pyrrolo[2,3-d]pyrimidin-4-yl)-2,5-dimethylpiperazine-1-carboxylate], for which the EC50 was below 100 nM in experiment [1], 100 to 500 nM in experiment [2] and below 100 nM in experiment [3].

With `CCc1cn(-c2cc(C(F)(F)F)ccn2)c2ncnc(N3C[C@@H](C)N(C(=O)OC(C)(C)C)C[C@@H]3C)c12` [Compound 696, tert-butyl (2R,5S)-4-(5-ethyl-7-(4-(trifluoromethyl)pyridin-2-yl)-7H-pyrrolo[2,3-d]pyrimidin-4-yl)-2,5-dimethylpiperazine-1-carboxylate], the EC50 in experiment [1], in experiment [2] and in experiment [3] was below 100 nM in each case.

With `CCc1cn(-c2cc(F)ccn2)c2ncnc(N3C[C@@H](C)N(C(=O)OC(C)(C)C)C[C@@H]3C)c12` [Compound 697, tert-butyl (2R,5S)-4-(5-ethyl-7-(4-fluoropyridin-2-yl)-7H-pyrrolo[2,3-d]pyrimidin-4-yl)-2,5-dimethylpiperazine-1-carboxylate], the EC50 in experiment [1], in experiment [2] and in experiment [3] was below 100 nM throughout.

With `CC(C)c1cn(-c2cc(F)ccn2)c2ncnc(N3C[C@@H](C)N(C(=O)OC(C)(C)C)C[C@@H]3C)c12` [Compound 698, tert-butyl (2R,5S)-4-(7-(4-fluoropyridin-2-yl)-5-isopropyl-7H-pyrrolo[2,3-d]pyrimidin-4-yl)-2,5-dimethylpiperazine-1-carboxylate], the EC50 is below 100 nM in experiment [1], 100 to 500 nM in experiment [2] and below 100 nM in experiment [3].

As to `CC(C)c1cn(-c2cc(C(F)(F)F)ccn2)c2ncnc(N3C[C@@H](C)N(C(=O)OC(C)(C)C)C[C@@H]3C)c12` [Compound 699, tert-butyl (2R,5S)-4-(5-isopropyl-7-(4-(trifluoromethyl)pyridin-2-yl)-7H-pyrrolo[2,3-d]pyrimidin-4-yl)-2,5-dimethylpiperazine-1-carboxylate], the EC50 is below 100 nM in experiment [1], 100 to 500 nM in experiment [2] and below 100 nM in experiment [3].

As for `CC(C)c1cn(-c2cc(C#N)ccn2)c2ncnc(N3C[C@@H](C)N(C(=O)OC(C)(C)C)C[C@@H]3C)c12` [Compound 700, tert-butyl (2R,5S)-4-(7-(4-cyanopyridin-2-yl)-5-isopropyl-7H-pyrrolo[2,3-d]pyrimidin-4-yl)-2,5-dimethylpiperazine-1-carboxylate], the EC50 in experiment [1] was below 100 nM; in experiment [2], 100 to 500 nM; in experiment [3] it was below 100 nM.

For `Cc1cn(-c2cc(F)ccn2)c2ccnc(N3C[C@@H](C)N(C(=O)OC(C)(C)C)C[C@@H]3C)c12` [Compound 701, tert-butyl (2R,5S)-4-(1-(4-fluoropyridin-2-yl)-3-methyl-1H-pyrrolo[3,2-c]pyridin-4-yl)-2,5-dimethylpiperazine-1-carboxylate], the figures for the EC50 in experiment [1], in experiment [2] and in experiment [3] were below 100 nM, above 2000 nM and 100 to 500 nM, respectively.

As to `Cc1cn(-c2cc(C(F)(F)F)ccn2)c2ccnc(N3C[C@@H](C)N(C(=O)OC(C)(C)C)C[C@@H]3C)c12` [Compound 702, tert-butyl (2R,5S)-2,5-dimethyl-4-(3-methyl-1-(4-(trifluoromethyl)pyridin-2-yl)-1H-pyrrolo[3,2-c]pyridin-4-yl)piperazine-1-carboxylate], the EC50 is below 100 nM in experiment [1], 500 to 2000 nM in experiment [2] and 500 to 2000 nM in experiment [3].

In the case of `C[C@H]1CN(C(=O)OC(C)(C)C)CCN1c1nccc2c1c(-c1ccccc1F)cn2-c1cccc(F)c1` [Compound 703, tert-butyl (S)-4-(3-(2-fluorophenyl)-1-(3-fluorophenyl)-1H-pyrrolo[3,2-c]pyridin-4-yl)-3-methylpiperazine-1-carboxylate], the EC50 in experiment [1], in experiment [2] and in experiment [3] was below 100 nM throughout.

`C[C@@H]1CN(c2nccc3c2c(C2CC2)cn3-c2cccc(F)c2)CCN1C(=O)OC(C)(C)C` [Compound 704, tert-butyl (R)-4-(3-cyclopropyl-1-(3-fluorophenyl)-1H-pyrrolo[3,2-c]pyridin-4-yl)-2-methylpiperazine-1-carboxylate]: the EC50 in experiment [1], in experiment [2] and in experiment [3] was below 100 nM throughout.

Take `Cc1cn(-c2cc(C#N)ccn2)c2ccnc(N3C[C@@H](C)N(C(=O)OC(C)(C)C)C[C@@H]3C)c12` [Compound 705, tert-butyl (2R,5S)-4-(1-(4-cyanopyridin-2-yl)-3-methyl-1H-pyrrolo[3,2-c]pyridin-4-yl)-2,5-dimethylpiperazine-1-carboxylate]: the figures for the EC50 in experiment [1], in experiment [2] and in experiment [3] were below 100 nM, 500 to 2000 nM and below 100 nM, respectively.

As to `C[C@H]1CN(C(=O)OC(C)(C)C)CCN1c1nccc2c1c(C1CCC1)cn2-c1cccc(F)c1` [Compound 706, tert-butyl (S)-4-(3-cyclobutyl-1-(3-fluorophenyl)-1H-pyrrolo[3,2-c]pyridin-4-yl)-3-methylpiperazine-1-carboxylate], the EC50 in experiment [1] lay within 100 to 500 nM; in experiment [2], 500 to 2000 nM; in experiment [3], 100 to 500 nM.

Take `[2H]C([2H])([2H])[C@@H]1CN(c2ncnc3c2c(C(F)(F)F)cn3-c2cc(C#N)ccn2)[C@@H](C)CN1C(=O)OC(C)(C)C` [Compound 707, tert-butyl (2R,5S)-4-(7-(4-cyanopyridin-2-yl)-5-(trifluoromethyl)-7H-pyrrolo[2,3-d]pyrimidin-4-yl)-5-methyl-2-(methyl-d3)piperazine-1-carboxylate]: the EC50 in experiment [1], in experiment [2] and in experiment [3] was below 100 nM in each case.

`CC(C)(C)OC(=O)N1CCN(c2ncnc3c2c(C(F)(F)F)cn3-c2cc(C#N)ccn2)CC1` [Compound 708, tert-butyl 4-(7-(4-cyanopyridin-2-yl)-5-(trifluoromethyl)-7H-pyrrolo[2,3-d]pyrimidin-4-yl)piperazine-1-carboxylate]: the EC50 in experiment [1], in experiment [2] and in experiment [3] was 500 to 2000 nM each time.

Regarding `[2H]C([2H])([2H])[C@@H]1CN(c2ncnc3c(-c4cc(C#N)ccn4)cn(-c4ccccc4F)c23)[C@@H](C)CN1C(=O)OC(C)(C)C` [Compound 709, tert-butyl (2R,5S)-4-(7-(4-cyanopyridin-2-yl)-5-(2-fluorophenyl)-5H-pyrrolo[3,2-d]pyrimidin-4-yl)-5-methyl-2-(methyl-d3)piperazine-1-carboxylate], the EC50 in experiment [1], in experiment [2] and in experiment [3] was below 100 nM each time.

As for `C[C@@H]1CN(c2ncnc3c2c(C2CCC2)cn3-c2cc(C#N)ccn2)[C@@H](C)CN1C(=O)OC(C)(C)C` [Compound 710, tert-butyl (2R,5S)-4-(7-(4-cyanopyridin-2-yl)-5-cyclobutyl-7H-pyrrolo[2,3-d]pyrimidin-4-yl)-2,5-dimethylpiperazine-1-carboxylate], the EC50 in experiment [1] is below 100 nM; in experiment [2], 100 to 500 nM; in experiment [3] it was below 100 nM.

Consider `[2H]C([2H])([2H])[C@@H]1CN(c2ncnc3c2c(C2CC2)cn3-c2cc(C#N)ccn2)[C@@H](C)CN1C(=O)OC(C)(C)C` [Compound 711, tert-butyl (2R,5S)-4-(7-(4-cyanopyridin-2-yl)-5-cyclopropyl-7H-pyrrolo[2,3-d]pyrimidin-4-yl)-5-methyl-2-(methyl-d3)piperazine-1-carboxylate], for which the EC50 is below 100 nM in experiment [1], 500 to 2000 nM in experiment [2] and 100 to 500 nM in experiment [3].

As a reminder, the EC50 is the concentration giving half of the maximal effect.
